From patent publication US20120115724A1, “METHOD OF CONTROLLING UNDESIRED VEGETATION” (SYNGENTA CROP PROTECTION LLC, priority 2009, published 2012)

Legend:
Type in all cases: in vivo
[1] = system: Echinochloa crus-galli (ECHCG); assay: Post-emergence biological efficacy (Example 14); settings: Echinochloa crus-galli, 312 h; post-emergence, 1,000 g/ha, after 13 days; read-out: Percentage damage ECHCG
In short: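 Visual damage rating, 0 (none) to 100 (total), taken 13 days after spraying. Plants sown in standard soil, grown 8 days at 24/16 °C, 14 h light, 65% RH, then treated at 250 or 1000 g/ha from acetone/water 50:50 with 0.5% Tween 20; watered twice daily.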

VERPE Veronica persica = assay: Post-emergence crop and weed test (Example 15); settings: 360 h, after 15 days, read-out: Percentage damage VERPE
In short: (§1)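 Glasshouse post-emergence trial; 0–100 damage rating taken 15 days after spraying 14-day-old plants, which were watered twice daily post-treatment.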

IPOHE Ipomoea hederacea = assay: Post-emergence crop and weed test (Example 15); settings: 360 h, after 15 days, read-out: Percentage damage IPOHE
In short: as §1

[2] = system: XANST Xanthium strumarium; assay: Post-emergence crop and weed test (Example 15); settings: 360 h, after 15 days, read-out: Percentage damage XANST
In short: as §1

[3] = system: EPHHL Euphorbia heterophylla; assay: Post-emergence crop and weed test (Example 15); settings: 360 h, after 15 days, read-out: Percentage damage EPHHL
In short: as §1

[4] = system: AMARE Amaranthus retroflexus; assay: Post-emergence crop and weed test (Example 15); settings: 360 h, after 15 days, read-out: Percentage damage AMARE
In short: as §1

GALAP Galium aparine = assay: Post-emergence crop and weed test (Example 15); settings: 360 h, after 15 days, read-out: Percentage damage GALAP
In short: as §1

KCHSC Kochia scoparia [5] = assay: Post-emergence crop and weed test (Example 15); settings: Bassia scoparia, 360 h, after 15 days, read-out: Percentage damage KCHSC
In short: as §1

[6] = system: POLCO Polygonum convolvulus; assay: Post-emergence crop and weed test (Example 15); settings: Fallopia convolvulus, 360 h, after 15 days, read-out: Percentage damage POLCO
In short: as §1

GLXMA Soybean = assay: Post-emergence crop and weed test (Example 15); settings: Glycine max, 360 h, after 15 days, read-out: Percentage damage GLXMA
In short: as §1

SINAR Sinapis arvensis = assay: Post-emergence crop and weed test (Example 15); settings: Mutarda arvensis, 360 h, after 15 days, read-out: Percentage damage SINAR
In short: as §1

SIDSP Sida spinosa = assay: Post-emergence crop and weed test (Example 15); settings: 360 h, after 15 days, read-out: Percentage damage SIDSP
In short: as §1

[7] = system: ABUTH Abutilon theophrasti; assay: Post-emergence crop and weed test (Example 15); settings: 360 h, after 15 days, read-out: Percentage damage ABUTH
In short: as §1

KCHSC Kochia scoparia [8] = assay: Pre-emergence crop and weed test (Example 16); settings: after 20 days
CHEAL Chenopodium album = assay: Post-emergence crop and weed test (Example 15); settings: 360 h, after 15 days, read-out: Percentage damage CHEAL
In short: as §1

Structure (SMILES): C/C=C\c1c(N)nc(-c2ccc(Cl)c(OC)c2F)nc1C(=O)OC [Compound 4, (Z)-4-Amino-2-(4-chloro-2-fluoro-3-methoxy-phenyl)-6-methoxy-carbonyl-5-(prop-1-enyl)-pyrimidine]
- pest or weed control at 1000 g/ha [1]: 80%
- pest or weed control at 8 g/ha (VERPE Veronica persica; 8 g/ha): 80%
- pest or weed control at 8 g/ha (IPOHE Ipomoea hederacea; 8 g/ha): 70%
- pest or weed control at 8 g/ha ([2]; 8 g/ha): 90%
- pest or weed control at 8 g/ha ([3]; 8 g/ha): 90%
- pest or weed control at 8 g/ha ([4]; 8 g/ha): 80%
- pest or weed control at 8 g/ha (GALAP Galium aparine; 8 g/ha): 30%
- pest or weed control at 8 g/ha (KCHSC Kochia scoparia [5]; 8 g/ha): 30%
- pest or weed control at 8 g/ha ([6]; 8 g/ha): 70%
- plant injury at 8 g/ha (GLXMA Soybean; 8 g/ha): 20%
- pest or weed control at 8 g/ha (SINAR Sinapis arvensis; 8 g/ha): 60%
- pest or weed control at 8 g/ha (SIDSP Sida spinosa; 8 g/ha): 50%
- pest or weed control at 8 g/ha ([7]; 8 g/ha): 60%

Structure (SMILES): C/C=C/c1c(N)nc(-c2ccc(Cl)c(OC)c2F)nc1C(=O)OC [Compound 3, (E)-4-Amino-2-(4-chloro-2-fluoro-3-methoxy-phenyl)-6-methoxy-carbonyl-5-(prop-1-enyl)-pyrimidine]
- Percentage damage KCHSC (KCHSC Kochia scoparia [8]; 30 g/ha): 100%
- pest or weed control at 1000 g/ha [1]: 100%
- pest or weed control at 125 g/ha (VERPE Veronica persica; 125 g/ha): 80%
- pest or weed control at 125 g/ha (IPOHE Ipomoea hederacea; 125 g/ha): 80%
- pest or weed control at 125 g/ha (CHEAL Chenopodium album; 125 g/ha): 90%
- pest or weed control at 125 g/ha ([2]; 125 g/ha): 80%
- pest or weed control at 125 g/ha ([3]; 125 g/ha): 90%
- pest or weed control at 125 g/ha ([4]; 125 g/ha): 100%
- pest or weed control at 125 g/ha (GALAP Galium aparine; 125 g/ha): 70%
- pest or weed control at 125 g/ha (KCHSC Kochia scoparia [5]; 125 g/ha): 80%
- pest or weed control at 125 g/ha ([6]; 125 g/ha): 90%
- plant injury at 125 g/ha (GLXMA Soybean; 125 g/ha): 0%
- pest or weed control at 125 g/ha (SINAR Sinapis arvensis; 125 g/ha): 70%
- pest or weed control at 125 g/ha (SIDSP Sida spinosa; 125 g/ha): 80%
- pest or weed control at 125 g/ha ([7]; 125 g/ha): 80%

Structure (SMILES): C/C=C\c1c(N)nc(-c2ccc(Cl)c(N(C)C)c2F)nc1C(=O)OC [Compound 5, (Z)-4-Amino-2-(4-chloro-3-dimethylamino-2-fluorophenyl)-6-methoxy-carbonyl-5-(prop-1-enyl)-pyrimidine]
- Percentage damage KCHSC (KCHSC Kochia scoparia [8]; 125 g/ha): 30%
- pest or weed control at 1000 g/ha [1]: 70%
- pest or weed control at 30 g/ha (VERPE Veronica persica; 30 g/ha): 60%
- pest or weed control at 30 g/ha (IPOHE Ipomoea hederacea; 30 g/ha): 0%
- pest or weed control at 30 g/ha (CHEAL Chenopodium album; 30 g/ha): 80%
- pest or weed control at 30 g/ha ([2]; 30 g/ha): 70%
- pest or weed control at 30 g/ha ([3]; 30 g/ha): 60%
- pest or weed control at 30 g/ha ([4]; 30 g/ha): 90%
- pest or weed control at 30 g/ha (KCHSC Kochia scoparia [5]; 30 g/ha): 70%
- pest or weed control at 30 g/ha ([6]; 30 g/ha): 90%
- plant injury at 30 g/ha (GLXMA Soybean; 30 g/ha): 0%
- pest or weed control at 30 g/ha (SINAR Sinapis arvensis; 30 g/ha): 80%
- pest or weed control at 30 g/ha (SIDSP Sida spinosa; 30 g/ha): 0%
- pest or weed control at 30 g/ha ([7]; 30 g/ha): 40%
